This note sets out measurements from ChEMBL document CHEMBL4251612, “Naturally occurring Diels-Alder-type adducts from Morus nigra as potent inhibitors of Mycobacterium tuberculosis protein tyrosine phosphatase B” (Eur J Med Chem, 2018).

In assay [1] the target is T1, Phosphotyrosine protein phosphatase (Mycobacterium tuberculosis, UniProt A0A045ISB3).
T1 sequence (A0A045ISB3 whole entry): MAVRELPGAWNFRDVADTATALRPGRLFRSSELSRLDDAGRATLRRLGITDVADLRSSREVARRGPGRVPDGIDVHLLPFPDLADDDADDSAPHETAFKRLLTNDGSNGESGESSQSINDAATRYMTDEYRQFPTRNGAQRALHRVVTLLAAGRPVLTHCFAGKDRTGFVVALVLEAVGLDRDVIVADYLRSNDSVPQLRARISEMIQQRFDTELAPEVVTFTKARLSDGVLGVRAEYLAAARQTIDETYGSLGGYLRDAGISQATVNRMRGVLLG
Kind of assay: Binding affinity to Mycobacterium tuberculosis PtpB by ITC method.

The subject of assay [2] is Mycobacterium tuberculosis. Kind of assay: Antitubercular activity against Mycobacterium tuberculosis H37Ra ATCC 25177 infected in human THP1 cells assessed as reduction in CFU at 14.4 uM after 72 hrs relative to control. The class given is functional. To be noted: H37Ra ATCC 25177, THP-1, 72 h, read-out: GI.
The target of assay [3] is T2, Phosphotyrosine protein phosphatase (Mycobacterium tuberculosis) (UniProt A0A045ISB3).
T2 sequence (whole entry): T1 sequence (A0A045ISB3 whole entry)
Kind of assay: Ratio of Kd for binding affinity to Mycobacterium tuberculosis PtpB by fluorescence based assay to Kd for binding affinity to Mycobacterium tuberculosis PtpB by ITC method. In general terms: ITC needs no label: the signal is the heat of the interaction.

The target of assay [4] is T1, Phosphotyrosine protein phosphatase. Kind of assay: Inhibition of Mycobacterium tuberculosis PtpB using p-nitrophenyl phosphate as substrate preincubated for 10 mins followed by substrate addition measured every minute for 10 mins by UV-VIS spectrophotometric analysis.
For assay [5], the target named is T2, Phosphotyrosine protein phosphatase (Mycobacterium tuberculosis). In words: Non-competitive inhibition of Mycobacterium tuberculosis PtpB using p-nitrophenyl phosphate as substrate up to 0.3 uM preincubated for 10 mins followed by substrate addition measured every minute for 10 mins by Michaelis-Menten plot analysis.
Assay [6] has the same target. In words: Binding affinity to Mycobacterium tuberculosis PtpB assessed as binding constant by ITC method.
The target of assay [7] is T3, Tyrosine-protein phosphatase non-receptor type 1 (Homo sapiens, UniProt P18031).
T3 sequence (P18031 whole entry): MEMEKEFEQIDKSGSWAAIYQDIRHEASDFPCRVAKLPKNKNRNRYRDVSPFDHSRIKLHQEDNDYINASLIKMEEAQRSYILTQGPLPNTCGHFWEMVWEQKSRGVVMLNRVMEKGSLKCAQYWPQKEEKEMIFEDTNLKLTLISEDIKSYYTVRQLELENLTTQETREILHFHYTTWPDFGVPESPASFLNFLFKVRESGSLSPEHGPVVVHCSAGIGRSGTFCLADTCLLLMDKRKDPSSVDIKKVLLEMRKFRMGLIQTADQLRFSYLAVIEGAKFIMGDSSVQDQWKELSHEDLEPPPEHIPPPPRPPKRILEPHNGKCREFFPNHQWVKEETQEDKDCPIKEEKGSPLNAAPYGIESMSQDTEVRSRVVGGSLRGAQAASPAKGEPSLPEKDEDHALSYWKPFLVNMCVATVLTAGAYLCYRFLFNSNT
Kind of assay: Non-competitive inhibition of human PTP1B using p-nitrophenyl phosphate as substrate up to 7 uM preincubated for 10 mins followed by substrate addition measured every minute for 10 mins by Michaelis-Menten plot analysis.

Assay [8] addresses T2, Phosphotyrosine protein phosphatase (Mycobacterium tuberculosis). In words: Binding affinity to Mycobacterium tuberculosis PtpB assessed as protection against proteolytic cleavage at 100 to 400 uM preincubated for 10 mins before trypsin addition by mass spectrometry.
Assay [9] addresses T3, Tyrosine-protein phosphatase non-receptor type 1. In words: Inhibition of human PTP1B using p-nitrophenyl phosphate as substrate preincubated for 10 mins followed by substrate addition measured every minute for 10 mins by UV-VIS spectrophotometric analysis.
Assay [10] is described as follows: Selectivity index, ratio of Ki for human PTP1B to Ki for Mycobacterium tuberculosis PtpB.
The target of assay [11] is T2, Phosphotyrosine protein phosphatase (Mycobacterium tuberculosis). In words: Reversible inhibition of Mycobacterium tuberculosis PtpB using p-nitrophenyl phosphate as substrate assessed as enzyme recovery at 10 times IC50 preincubated for 10 mins followed by 100-fold dilution. Further details: scale not given: the % may be the effect or the level left.
Assay [12] concerns the target T4, Tyrosine-protein phosphatase non-receptor type 1 (Homo sapiens) (UniProt P18031).
T4 sequence (whole entry): T3 sequence (P18031 whole entry)
Kind of assay: Binding affinity to human PTP1B assessed as protection against proteolytic cleavage at 400 uM preincubated for 10 mins before trypsin addition and measured after 2 hrs by mass spectrometry.

Assay [13] has as its target T2, Phosphotyrosine protein phosphatase (Mycobacterium tuberculosis). Kind of assay: Binding affinity to Mycobacterium tuberculosis PtpB assessed as fluorescence quenching at 0.1 to 4.7 uM by spectropolarimetry.
Assay [14] shares this target. In words: Binding affinity to Mycobacterium tuberculosis PtpB assessed as Stern-Volmer quenching constant by UV-VIS spectrophotometric analysis.
Assay [15] has the same target. In words: Competitive inhibition of Mycobacterium tuberculosis PtpB using p-nitrophenyl phosphate as substrate up to 0.3 uM preincubated for 10 mins followed by substrate addition measured every minute for 10 mins by Michaelis-Menten plot analysis.
Assay [16] has the same target. In words: Binding affinity to Mycobacterium tuberculosis PtpB assessed as fluorescence quenching at 0.1 to 3.8 uM by spectropolarimetry.
Assay [17] has as its system Mycobacterium tuberculosis. Kind of assay: Antitubercular activity against Mycobacterium tuberculosis H37Ra ATCC 25177 infected in human THP1 cells assessed as reduction in CFU at 13.2 uM after 72 hrs. In kind it is functional, organism-based.

Calls of active or inactive are those of the source. The calls are words filed in the database; no cut-off is given here.

With `CC(C)=CCc1c(-c2ccc(O)cc2O)oc2c([C@@H]3C=C(C)C[C@H](c4ccc(O)cc4O)[C@H]3C(=O)c3ccc(O)cc3O)c(O)cc(O)c2c1=O`, the affinity in assay [1], expressed as Kd, was 2900 nM. In assay [2], the inhibition of growth at 14.4 µM came out at 61.3%. In assay [3], the Ratio was 2. In addition, the values for the IC50 in [4] and in assay [9] were 830 nM and 4560 nM, respectively. Further, the inhibition entry in [5] was “Active”. Further, the Ka came out at 3.5 ×10⁵ /M in assay [6] and 1 ×10⁶ /M in assay [14]. In assay [7], affinity was put at a Ki of 200 nM. For the same compound, the result in assay [8] and in assay [13] was Active. The Ratio Ki in [10] came out at 26. The Activity in assay [11] came to 40%. For the same compound, the outcome in [12] was inactive.

As to `CC(C)=CCc1c(O)ccc(C(=O)[C@@H]2[C@@H](c3ccc(O)cc3O)CC(C)=C[C@H]2c2c(O)cc(O)c3c(=O)c(CC=C(C)C)c(-c4ccc(O)cc4O)oc23)c1O`, the IC50 (as a rule, the concentration needed to halve the response being measured) in assay [4] came out at 360 nM; in [9], 2540 nM. Moreover, the inhibition result in [15] was “Active”. For the same compound, the outcome in assay [8] and in [16] was Active. In addition, in assay [11], the Activity is 40%. The result in [17] was inactive. The Ka in assay [14] was determined as 1 ×10⁶ /M.
